Laboratory results as given in paper doi:10.1101/2023.10.20.563248v1 (biorxiv, 2023).

How the values were obtained:
Settings in all cases: 1 µM; inhibitor
MYLK3 = MYLK3 (Homo sapiens, UniProt Q32MK0)
VEGFR1 = VEGFR1 (Homo sapiens, UniProt P17948)
TRKB = TRKB (Homo sapiens, UniProt Q16620)
NEK11 = NEK11 (Homo sapiens, UniProt Q8NG66)
SRC = SRC (Homo sapiens, UniProt P12931)
CDK8 = CDK8 (Homo sapiens, UniProt P49336)
GRK6 = GRK6 (Homo sapiens, UniProt P43250)
MAPKAPK3 = MAPKAPK3 (Homo sapiens, UniProt Q16644)
CAMK4 = CAMK4 (Homo sapiens, UniProt Q16566)
PDK1 = PDK1 (Homo sapiens, UniProt O15530)
PAK4 = PAK4 (Homo sapiens, UniProt O96013)
RIPK4 = RIPK4 (Homo sapiens, UniProt P57078)
MERTK = MERTK (Homo sapiens, UniProt Q12866)
CK1g2 = CK1g2 (Homo sapiens, UniProt P78368)
CK1g2, sequence (P78368 whole entry): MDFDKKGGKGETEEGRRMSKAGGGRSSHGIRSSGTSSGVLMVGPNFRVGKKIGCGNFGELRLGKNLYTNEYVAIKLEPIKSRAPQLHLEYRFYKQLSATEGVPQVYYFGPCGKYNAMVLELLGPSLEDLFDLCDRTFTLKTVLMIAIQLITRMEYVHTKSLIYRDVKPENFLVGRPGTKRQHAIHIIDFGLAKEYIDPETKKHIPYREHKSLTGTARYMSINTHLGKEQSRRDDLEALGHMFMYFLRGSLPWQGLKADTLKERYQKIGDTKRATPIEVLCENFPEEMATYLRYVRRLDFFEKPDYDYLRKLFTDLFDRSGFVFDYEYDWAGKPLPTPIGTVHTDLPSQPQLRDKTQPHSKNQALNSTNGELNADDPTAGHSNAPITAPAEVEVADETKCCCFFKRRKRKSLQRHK

FER = FER (Homo sapiens, UniProt P16591)
FER, sequence (P16591 whole entry): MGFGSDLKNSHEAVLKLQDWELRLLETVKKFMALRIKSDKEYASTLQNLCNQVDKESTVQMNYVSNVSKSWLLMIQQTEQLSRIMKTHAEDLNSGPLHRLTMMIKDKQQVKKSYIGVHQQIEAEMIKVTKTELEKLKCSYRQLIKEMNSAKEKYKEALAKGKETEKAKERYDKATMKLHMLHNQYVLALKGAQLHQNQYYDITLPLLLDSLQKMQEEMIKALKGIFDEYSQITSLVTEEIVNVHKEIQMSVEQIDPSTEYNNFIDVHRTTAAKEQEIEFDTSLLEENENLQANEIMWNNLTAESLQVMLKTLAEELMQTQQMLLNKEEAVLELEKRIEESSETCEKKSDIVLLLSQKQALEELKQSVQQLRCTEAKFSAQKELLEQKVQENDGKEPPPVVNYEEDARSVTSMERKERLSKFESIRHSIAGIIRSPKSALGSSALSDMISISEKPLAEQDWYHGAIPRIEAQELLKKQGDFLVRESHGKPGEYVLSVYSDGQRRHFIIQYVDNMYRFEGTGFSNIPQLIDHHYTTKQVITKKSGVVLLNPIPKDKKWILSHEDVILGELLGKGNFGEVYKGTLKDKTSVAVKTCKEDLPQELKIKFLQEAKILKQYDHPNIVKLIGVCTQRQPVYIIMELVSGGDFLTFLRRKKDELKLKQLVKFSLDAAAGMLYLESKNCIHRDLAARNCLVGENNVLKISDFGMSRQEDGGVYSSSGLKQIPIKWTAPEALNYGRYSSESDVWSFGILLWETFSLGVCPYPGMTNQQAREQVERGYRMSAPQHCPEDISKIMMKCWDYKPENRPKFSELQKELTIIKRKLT

PKCb = PKCb (Homo sapiens, UniProt P05771)
SNARK = SNARK (Homo sapiens, UniProt Q9H093)
NEK6 = NEK6 (Homo sapiens, UniProt Q9HC98)
HIPK4 = HIPK4 (Homo sapiens, UniProt Q8NE63)
CDK16 = CDK16 (Homo sapiens, UniProt Q00536)
CLK3 = CLK3 (Homo sapiens, UniProt P49761)
CDC42BPB = CDC42BPB (Homo sapiens, UniProt Q9Y5S2)
RPS6KA2 = RPS6KA2 (Homo sapiens, UniProt Q15349)
HIPK3 = HIPK3 (Homo sapiens, UniProt Q9H422)
RPS6KB1 = RPS6KB1 (Homo sapiens, UniProt P23443)
FGFR3 = FGFR3 (Homo sapiens, UniProt P22607)
EGFR = EGFR (Homo sapiens, UniProt P00533)
GRK3 = GRK3 (Homo sapiens, UniProt P35626)
STK17A = STK17A (Homo sapiens, UniProt Q9UEE5)
STK39 = STK39 (Homo sapiens, UniProt Q9UEW8)
RIPK5 = RIPK5 (Homo sapiens, UniProt Q6XUX3)

TRKB, sequence (Q16620 whole entry): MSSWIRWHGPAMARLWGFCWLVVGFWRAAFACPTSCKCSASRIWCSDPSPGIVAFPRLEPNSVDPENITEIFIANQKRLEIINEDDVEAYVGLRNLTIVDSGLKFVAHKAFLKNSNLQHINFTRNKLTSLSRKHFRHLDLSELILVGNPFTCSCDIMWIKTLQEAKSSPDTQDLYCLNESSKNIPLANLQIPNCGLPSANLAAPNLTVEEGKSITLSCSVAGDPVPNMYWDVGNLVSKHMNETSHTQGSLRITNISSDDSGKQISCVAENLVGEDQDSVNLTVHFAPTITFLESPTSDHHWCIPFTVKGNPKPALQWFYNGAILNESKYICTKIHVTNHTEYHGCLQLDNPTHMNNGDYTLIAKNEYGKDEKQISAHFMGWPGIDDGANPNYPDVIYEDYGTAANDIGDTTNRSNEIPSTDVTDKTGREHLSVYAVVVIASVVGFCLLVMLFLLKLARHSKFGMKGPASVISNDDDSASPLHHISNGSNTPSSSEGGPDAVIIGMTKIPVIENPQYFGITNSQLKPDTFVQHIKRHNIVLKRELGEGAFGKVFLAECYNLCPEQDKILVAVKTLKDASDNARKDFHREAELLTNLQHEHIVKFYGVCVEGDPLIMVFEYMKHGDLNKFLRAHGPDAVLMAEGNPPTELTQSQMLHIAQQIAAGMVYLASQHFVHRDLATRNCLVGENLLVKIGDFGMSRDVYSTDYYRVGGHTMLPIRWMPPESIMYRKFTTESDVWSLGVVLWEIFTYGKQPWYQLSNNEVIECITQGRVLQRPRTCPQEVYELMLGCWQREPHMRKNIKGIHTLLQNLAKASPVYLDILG
CDK8, sequence (P49336 whole entry): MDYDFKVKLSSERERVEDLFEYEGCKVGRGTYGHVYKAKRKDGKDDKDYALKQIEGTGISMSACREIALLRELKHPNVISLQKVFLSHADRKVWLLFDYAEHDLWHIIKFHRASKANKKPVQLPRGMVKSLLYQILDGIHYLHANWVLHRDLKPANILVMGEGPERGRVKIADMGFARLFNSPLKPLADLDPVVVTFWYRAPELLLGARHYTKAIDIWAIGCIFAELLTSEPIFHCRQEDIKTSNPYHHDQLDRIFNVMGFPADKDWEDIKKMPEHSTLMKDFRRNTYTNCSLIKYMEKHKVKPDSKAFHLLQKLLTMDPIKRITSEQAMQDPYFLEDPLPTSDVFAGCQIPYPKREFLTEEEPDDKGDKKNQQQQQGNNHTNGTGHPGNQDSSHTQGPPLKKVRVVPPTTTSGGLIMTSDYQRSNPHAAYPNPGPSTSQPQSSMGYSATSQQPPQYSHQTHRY
VEGFR1, sequence (P17948 whole entry): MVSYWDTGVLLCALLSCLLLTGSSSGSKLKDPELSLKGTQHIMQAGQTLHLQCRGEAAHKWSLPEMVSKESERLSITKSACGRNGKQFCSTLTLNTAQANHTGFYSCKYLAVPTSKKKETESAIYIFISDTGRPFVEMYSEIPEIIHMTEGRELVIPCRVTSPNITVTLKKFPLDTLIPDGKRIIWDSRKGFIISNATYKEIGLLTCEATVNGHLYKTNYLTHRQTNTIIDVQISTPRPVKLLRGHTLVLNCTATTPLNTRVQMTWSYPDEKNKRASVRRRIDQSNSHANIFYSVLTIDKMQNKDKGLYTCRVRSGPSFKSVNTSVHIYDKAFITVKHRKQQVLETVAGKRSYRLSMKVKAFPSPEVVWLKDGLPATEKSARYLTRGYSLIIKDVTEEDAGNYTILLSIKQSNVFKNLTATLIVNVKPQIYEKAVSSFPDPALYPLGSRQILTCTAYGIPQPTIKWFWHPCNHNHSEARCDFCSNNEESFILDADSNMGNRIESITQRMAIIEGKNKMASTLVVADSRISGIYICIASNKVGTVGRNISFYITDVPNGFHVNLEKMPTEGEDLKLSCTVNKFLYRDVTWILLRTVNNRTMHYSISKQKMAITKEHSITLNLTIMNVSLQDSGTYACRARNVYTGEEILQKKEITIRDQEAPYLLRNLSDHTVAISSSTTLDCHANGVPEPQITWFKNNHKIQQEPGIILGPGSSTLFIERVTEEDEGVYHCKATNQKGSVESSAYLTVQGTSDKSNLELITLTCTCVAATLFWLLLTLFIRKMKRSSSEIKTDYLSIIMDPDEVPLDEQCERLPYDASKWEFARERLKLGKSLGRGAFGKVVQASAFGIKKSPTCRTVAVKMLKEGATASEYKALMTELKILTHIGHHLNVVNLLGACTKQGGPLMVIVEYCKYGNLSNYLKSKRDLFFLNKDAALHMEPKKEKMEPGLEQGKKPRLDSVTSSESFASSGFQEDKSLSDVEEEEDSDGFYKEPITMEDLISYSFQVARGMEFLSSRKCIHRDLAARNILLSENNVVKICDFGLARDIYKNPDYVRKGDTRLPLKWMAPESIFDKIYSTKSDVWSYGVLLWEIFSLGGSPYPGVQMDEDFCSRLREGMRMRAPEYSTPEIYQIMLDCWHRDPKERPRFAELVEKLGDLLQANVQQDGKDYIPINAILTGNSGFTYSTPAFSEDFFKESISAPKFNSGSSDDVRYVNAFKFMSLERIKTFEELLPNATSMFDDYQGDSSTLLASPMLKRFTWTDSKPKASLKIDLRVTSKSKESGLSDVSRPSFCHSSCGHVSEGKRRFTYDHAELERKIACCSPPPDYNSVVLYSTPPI
NEK11, sequence (Q8NG66 whole entry): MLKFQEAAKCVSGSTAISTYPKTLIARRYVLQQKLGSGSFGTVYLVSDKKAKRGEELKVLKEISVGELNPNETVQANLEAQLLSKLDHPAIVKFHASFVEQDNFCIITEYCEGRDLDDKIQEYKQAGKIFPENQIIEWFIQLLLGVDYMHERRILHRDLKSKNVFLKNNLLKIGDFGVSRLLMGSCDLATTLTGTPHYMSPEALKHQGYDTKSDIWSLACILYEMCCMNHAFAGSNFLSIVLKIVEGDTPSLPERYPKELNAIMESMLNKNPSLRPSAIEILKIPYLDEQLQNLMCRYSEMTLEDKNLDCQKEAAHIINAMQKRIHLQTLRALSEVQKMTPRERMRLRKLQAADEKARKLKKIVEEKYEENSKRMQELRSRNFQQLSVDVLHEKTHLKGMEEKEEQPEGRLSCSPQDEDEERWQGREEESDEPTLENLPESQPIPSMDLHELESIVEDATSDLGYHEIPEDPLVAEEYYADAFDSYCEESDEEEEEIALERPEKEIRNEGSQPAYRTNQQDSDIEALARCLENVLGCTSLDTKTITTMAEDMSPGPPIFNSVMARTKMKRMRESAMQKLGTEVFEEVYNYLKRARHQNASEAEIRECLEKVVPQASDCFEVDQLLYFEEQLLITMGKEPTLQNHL
SRC, sequence (P12931 whole entry): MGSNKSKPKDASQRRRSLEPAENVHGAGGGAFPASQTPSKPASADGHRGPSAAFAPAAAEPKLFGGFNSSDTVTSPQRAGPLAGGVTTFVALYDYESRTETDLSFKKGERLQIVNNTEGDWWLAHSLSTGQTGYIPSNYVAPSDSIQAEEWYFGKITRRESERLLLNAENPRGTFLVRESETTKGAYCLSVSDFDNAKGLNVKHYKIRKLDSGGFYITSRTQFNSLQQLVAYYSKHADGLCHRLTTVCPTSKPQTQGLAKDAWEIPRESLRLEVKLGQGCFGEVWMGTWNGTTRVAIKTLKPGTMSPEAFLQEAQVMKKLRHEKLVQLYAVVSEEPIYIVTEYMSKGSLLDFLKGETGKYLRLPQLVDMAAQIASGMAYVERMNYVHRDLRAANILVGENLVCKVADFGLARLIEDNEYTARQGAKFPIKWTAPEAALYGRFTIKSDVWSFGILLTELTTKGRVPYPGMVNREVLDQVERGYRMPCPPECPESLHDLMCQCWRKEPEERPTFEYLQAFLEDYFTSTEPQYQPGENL

- 21c Remaining activity, percent of control [%] (MYLK3): 86.4%
- 21c Remaining activity, percent of control [%] (VEGFR1): 100.3%
- 21c Remaining activity, percent of control [%] (TRKB): 79.0%
- 21c Remaining activity, percent of control [%] (NEK11): 93.3%
- 21c Remaining activity, percent of control [%] (SRC): 94.8%
- 21c Remaining activity, percent of control [%] (CDK8): 88.5%
- 21c Remaining activity, percent of control [%] (GRK6): 87.6%
- 21c Remaining activity, percent of control [%] (MAPKAPK3): 95.7%
- 21c Remaining activity, percent of control [%] (CAMK4): 98.0%
- 21c Remaining activity, percent of control [%] (PDK1): 99.5%
- 21c Remaining activity, percent of control [%] (PAK4): 95.1%
- 21c Remaining activity, percent of control [%] (RIPK4): 101.1%
- 21c Remaining activity, percent of control [%] (MERTK): 44.2%
- 21c Remaining activity, percent of control [%] (CK1g2): 109.6%
- 21c Remaining activity, percent of control [%] (FER): 101.7%
- 21c Remaining activity, percent of control [%] (PKCb): 82.5%
- 21c Remaining activity, percent of control [%] (SNARK): 95.6%
- 21c Remaining activity, percent of control [%] (NEK6): 89.5%
- 21c Remaining activity, percent of control [%] (HIPK4): 115.2%
- 21c Remaining activity, percent of control [%] (CDK16): 94.1%
- 21c Remaining activity, percent of control [%] (CLK3): 88.6%
- 21c Remaining activity, percent of control [%] (CDC42BPB): 106.6%
- 21c Remaining activity, percent of control [%] (RPS6KA2): 84.0%
- 21c Remaining activity, percent of control [%] (HIPK3): 90.8%
- 21c Remaining activity, percent of control [%] (RPS6KB1): 86.2%
- 21c Remaining activity, percent of control [%] (FGFR3): 99.8%
- 21c Remaining activity, percent of control [%] (EGFR): 100.0%
- 21c Remaining activity, percent of control [%] (GRK3): 97.4%
- 21c Remaining activity, percent of control [%] (STK17A): 103.5%
- 21c Remaining activity, percent of control [%] (STK39): 49.5%
- 21c Remaining activity, percent of control [%] (RIPK5): 122.0%
Compound: O=C1NCCCCCNc2nc(c3ccccc3n2)Nc2cc1[nH]n2 [21c, (Z)-3^1H-2,5,11-triaza-1(4,2)-quinazolina-3(3,5)-pyrazolacycloundecaphan-4-one]
